Measurements from ChEMBL document CHEMBL5728220, “[1,3]thiazin-2-amine compound, application, and pharmaceutical composition” (2021).

Molecular target: Beta-secretase 1 (Homo sapiens, UniProt P56817)
Test: Activity Assay: The activity assay for the compound of each example was carried out in this experimental example, and the detailed test method was as follows:1. The test compound was formulated as 10 μmol/L solution in dimethylsulfoxide;2. Starting from 10 μmol/L, by 3-fold serial dilution, the inhibitory activity of each compound against the enzyme was tested in singlet state at 10 doses;3. IC50 values of test compounds were finally obtained.

Chain of Beta-secretase 1 (P56817 whole entry): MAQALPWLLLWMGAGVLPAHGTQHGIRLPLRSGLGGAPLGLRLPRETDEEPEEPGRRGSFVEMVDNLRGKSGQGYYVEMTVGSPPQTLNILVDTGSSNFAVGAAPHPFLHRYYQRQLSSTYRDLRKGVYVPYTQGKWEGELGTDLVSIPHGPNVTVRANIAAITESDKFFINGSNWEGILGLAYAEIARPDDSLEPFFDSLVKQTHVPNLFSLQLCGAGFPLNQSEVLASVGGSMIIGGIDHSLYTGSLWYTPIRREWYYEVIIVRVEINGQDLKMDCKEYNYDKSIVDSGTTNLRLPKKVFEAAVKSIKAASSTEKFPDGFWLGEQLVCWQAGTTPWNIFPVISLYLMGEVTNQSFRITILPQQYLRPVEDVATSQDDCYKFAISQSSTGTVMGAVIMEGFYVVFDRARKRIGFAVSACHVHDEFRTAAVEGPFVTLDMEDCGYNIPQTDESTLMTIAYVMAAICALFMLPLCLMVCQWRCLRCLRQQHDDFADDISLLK

Work on `C[C@H]1C[C@@]2(F)CSC(N)=N[C@@]2(c2cccc(NC(=O)c3ccc(Cl)cn3)c2)CO1` yielded an IC50 of 213 nM.
